Test results reported in ChEMBL document CHEMBL4828722, “The synthesis and bioactivity of pyrrolo[2,3-d]pyrimidine derivatives as tyrosine kinase inhibitors for NSCLC cells with EGFR mutations” (Eur J Med Chem, 2021).

Experiments:
NCI-H1975 = assay: Cytotoxicity against human NCI-H1975 cells harboring EGFR L858R/T790M mutant assessed as reduction in cell viability measured after 48 hrs by CCK8 assay; format: functional, cell-based; conditions: NCI-H1975, 48 h
HCC827 = assay: Cytotoxicity against human HCC827 cells harboring EGFR del E746-A750 mutant assessed as reduction in cell viability measured after 48 hrs by CCK8 assay; format: functional, cell-based; conditions: HCC827, 48 h
[1] = molecular target: Epidermal growth factor receptor (Homo sapiens, UniProt P00533); assay: Inhibition of wild type EGFR (unknown origin) at 80 nM pretreated with substrate for 10 mins followed by ATP addition measured after 60 mins by mobility shift assay relative to control
Epidermal growth factor receptor, sequence (P00533 whole entry): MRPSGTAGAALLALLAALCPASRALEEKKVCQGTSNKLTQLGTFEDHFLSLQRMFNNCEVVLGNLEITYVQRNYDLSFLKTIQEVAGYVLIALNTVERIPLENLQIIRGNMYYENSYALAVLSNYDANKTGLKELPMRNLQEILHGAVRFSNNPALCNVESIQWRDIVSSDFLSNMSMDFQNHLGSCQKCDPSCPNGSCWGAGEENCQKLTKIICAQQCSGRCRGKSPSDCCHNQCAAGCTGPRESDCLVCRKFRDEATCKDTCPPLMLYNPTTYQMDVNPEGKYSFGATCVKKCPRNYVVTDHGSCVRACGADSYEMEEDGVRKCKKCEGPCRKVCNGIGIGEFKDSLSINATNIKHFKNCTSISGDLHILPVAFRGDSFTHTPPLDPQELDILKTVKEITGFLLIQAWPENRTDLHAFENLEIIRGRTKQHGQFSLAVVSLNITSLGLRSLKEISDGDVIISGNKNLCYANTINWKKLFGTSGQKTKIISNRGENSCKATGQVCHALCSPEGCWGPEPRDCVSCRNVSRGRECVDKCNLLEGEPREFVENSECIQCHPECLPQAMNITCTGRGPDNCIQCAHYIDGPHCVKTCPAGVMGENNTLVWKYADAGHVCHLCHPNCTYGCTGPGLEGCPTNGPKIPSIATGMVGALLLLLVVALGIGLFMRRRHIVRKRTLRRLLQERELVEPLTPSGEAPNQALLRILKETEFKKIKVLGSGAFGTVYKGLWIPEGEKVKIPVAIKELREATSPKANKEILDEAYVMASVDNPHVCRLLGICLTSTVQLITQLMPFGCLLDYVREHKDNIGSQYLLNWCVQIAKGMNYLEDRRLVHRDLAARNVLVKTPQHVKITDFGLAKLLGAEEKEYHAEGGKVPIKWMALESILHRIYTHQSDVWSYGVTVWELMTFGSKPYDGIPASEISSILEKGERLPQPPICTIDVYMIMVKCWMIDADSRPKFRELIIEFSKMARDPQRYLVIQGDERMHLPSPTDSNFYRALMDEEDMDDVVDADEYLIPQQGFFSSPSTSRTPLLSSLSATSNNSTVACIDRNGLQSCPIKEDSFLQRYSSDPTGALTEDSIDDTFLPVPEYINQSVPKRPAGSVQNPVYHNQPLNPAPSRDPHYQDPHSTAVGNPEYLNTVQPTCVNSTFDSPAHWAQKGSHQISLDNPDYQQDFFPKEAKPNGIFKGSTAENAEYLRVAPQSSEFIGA

[2] = tested on: Epidermal growth factor receptor (Homo sapiens), P00533 [UNDEFINED MUTATION]; assay: Inhibition of […] EGFR Del E746/A750 mutant (unknown origin) at 2 nM pretreated with substrate for 10 mins followed by ATP addition measured after 60 mins by mobility shift assay relative to control
Epidermal growth factor receptor (Homo sapiens), P00533 [UNDEFINED MUTATION], sequence (P00533 whole entry, looked up, stated change not applied): as the sequence (P00533 whole entry) above

A549 = assay: Cytotoxicity against human A549 cells harboring wild type EGFR assessed as reduction in cell viability measured after 48 hrs by CCK8 assay; format: functional, cell-based; conditions: A549, 48 h
BEAS-2B = assay: Cytotoxicity against human BEAS-2B cells assessed as reduction in cell viability measured after 48 hrs by CCK8 assay; format: cell-based
[3] = tested on: Epidermal growth factor receptor (Homo sapiens), P00533 [L858R,T790M,C797S]; assay: Inhibition of […] EGFR L858R/T790M/C797S mutant (unknown origin) at 2 nM pretreated with substrate for 10 mins followed by ATP addition measured after 60 mins by mobility shift assay relative to control
Epidermal growth factor receptor (Homo sapiens), P00533 [L858R,T790M,C797S], sequence (P00533 whole entry T790M/C797S/L858R): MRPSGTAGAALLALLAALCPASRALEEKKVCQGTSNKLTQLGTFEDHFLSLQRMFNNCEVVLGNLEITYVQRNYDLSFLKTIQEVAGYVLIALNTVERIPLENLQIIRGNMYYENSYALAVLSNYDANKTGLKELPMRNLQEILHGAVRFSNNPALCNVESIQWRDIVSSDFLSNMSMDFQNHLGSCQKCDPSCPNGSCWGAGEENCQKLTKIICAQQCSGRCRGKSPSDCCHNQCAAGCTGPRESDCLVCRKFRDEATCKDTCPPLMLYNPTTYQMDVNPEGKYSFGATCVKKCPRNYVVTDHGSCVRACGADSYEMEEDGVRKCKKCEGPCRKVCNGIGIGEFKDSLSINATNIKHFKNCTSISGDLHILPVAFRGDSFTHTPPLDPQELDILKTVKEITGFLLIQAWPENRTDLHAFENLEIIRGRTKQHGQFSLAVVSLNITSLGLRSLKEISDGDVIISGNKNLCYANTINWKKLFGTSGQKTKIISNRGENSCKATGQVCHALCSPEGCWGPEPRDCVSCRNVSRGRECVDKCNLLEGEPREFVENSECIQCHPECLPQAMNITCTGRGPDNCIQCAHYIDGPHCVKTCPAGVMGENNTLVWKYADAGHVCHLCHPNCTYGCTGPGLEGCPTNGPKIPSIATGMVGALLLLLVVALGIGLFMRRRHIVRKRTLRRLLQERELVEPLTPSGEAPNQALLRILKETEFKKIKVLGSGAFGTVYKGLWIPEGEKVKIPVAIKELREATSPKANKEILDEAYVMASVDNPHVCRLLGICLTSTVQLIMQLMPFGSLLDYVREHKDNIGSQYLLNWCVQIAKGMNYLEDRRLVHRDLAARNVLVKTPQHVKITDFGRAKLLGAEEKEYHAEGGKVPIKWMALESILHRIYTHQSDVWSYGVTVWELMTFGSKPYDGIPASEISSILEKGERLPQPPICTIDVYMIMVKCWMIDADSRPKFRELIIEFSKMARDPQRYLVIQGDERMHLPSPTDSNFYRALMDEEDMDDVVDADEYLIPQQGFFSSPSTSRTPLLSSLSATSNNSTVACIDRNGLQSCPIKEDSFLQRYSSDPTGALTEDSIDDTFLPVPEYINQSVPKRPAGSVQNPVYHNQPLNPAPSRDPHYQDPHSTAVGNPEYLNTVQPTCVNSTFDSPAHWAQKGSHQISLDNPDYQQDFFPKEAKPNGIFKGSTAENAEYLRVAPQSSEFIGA

[4] = tested on: Epidermal growth factor receptor (Homo sapiens), P00533 [L858R,T790M]; assay: Inhibition of […] EGFR L858R/T790M mutant (unknown origin) at 2 nM pretreated with substrate for 10 mins followed by ATP addition measured after 60 mins by mobility shift assay relative to control
[5] = Cytotoxicity against human HBE cells assessed as reduction in cell viability measured after 48 hrs by CCK8 assay; format: cell-based
[6] = tested on: Epidermal growth factor receptor (Homo sapiens), P00533 [C797S]; assay: Inhibition of […] EGFR C797S mutant (unknown origin) at 2 nM pretreated with substrate for 10 mins followed by ATP addition measured after 60 mins by mobility shift assay relative to control
Epidermal growth factor receptor (Homo sapiens), P00533 [C797S], sequence (P00533 whole entry C797S): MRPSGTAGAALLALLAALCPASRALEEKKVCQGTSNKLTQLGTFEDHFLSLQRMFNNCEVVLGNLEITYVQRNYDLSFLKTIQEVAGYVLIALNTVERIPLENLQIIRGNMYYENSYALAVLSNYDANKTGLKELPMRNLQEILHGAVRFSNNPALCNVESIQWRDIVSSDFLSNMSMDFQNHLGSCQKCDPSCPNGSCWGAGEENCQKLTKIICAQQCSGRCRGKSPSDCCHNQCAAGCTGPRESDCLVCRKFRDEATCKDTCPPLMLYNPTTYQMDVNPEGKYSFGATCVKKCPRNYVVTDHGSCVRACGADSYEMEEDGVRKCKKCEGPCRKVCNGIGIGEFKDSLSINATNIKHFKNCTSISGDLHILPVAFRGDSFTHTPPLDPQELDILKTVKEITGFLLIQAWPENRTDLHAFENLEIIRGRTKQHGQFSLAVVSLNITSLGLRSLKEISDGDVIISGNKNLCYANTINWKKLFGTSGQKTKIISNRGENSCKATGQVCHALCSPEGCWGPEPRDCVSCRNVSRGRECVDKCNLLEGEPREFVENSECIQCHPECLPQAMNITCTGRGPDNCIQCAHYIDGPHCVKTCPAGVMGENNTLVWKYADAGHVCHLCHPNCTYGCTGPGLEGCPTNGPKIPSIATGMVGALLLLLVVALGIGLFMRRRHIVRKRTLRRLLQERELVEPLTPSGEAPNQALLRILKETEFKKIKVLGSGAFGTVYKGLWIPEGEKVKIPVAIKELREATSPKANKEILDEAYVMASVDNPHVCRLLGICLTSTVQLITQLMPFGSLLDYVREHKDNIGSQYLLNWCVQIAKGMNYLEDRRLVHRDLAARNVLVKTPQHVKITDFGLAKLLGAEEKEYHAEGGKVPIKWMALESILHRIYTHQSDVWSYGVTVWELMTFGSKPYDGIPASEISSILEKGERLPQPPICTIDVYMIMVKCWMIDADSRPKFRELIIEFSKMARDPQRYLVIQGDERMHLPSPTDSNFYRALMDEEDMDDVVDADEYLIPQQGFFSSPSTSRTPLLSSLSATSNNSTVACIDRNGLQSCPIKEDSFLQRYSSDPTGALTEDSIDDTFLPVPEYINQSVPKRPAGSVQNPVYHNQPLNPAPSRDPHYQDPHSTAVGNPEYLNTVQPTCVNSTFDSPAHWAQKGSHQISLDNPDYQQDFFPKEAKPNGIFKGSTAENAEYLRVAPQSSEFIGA

NCI-H460 = assay: Cytotoxicity against human NCI-H460 cells harboring wild type EGFR assessed as reduction in cell viability measured after 48 hrs by CCK8 assay; format: functional, cell-based; conditions: NCI-H460, 48 h
[7] = tested on: Epidermal growth factor receptor (Homo sapiens), P00533 [L858R]; assay: Inhibition of […] EGFR L858R mutant (unknown origin) at 2 nM pretreated with substrate for 10 mins followed by ATP addition measured after 60 mins by mobility shift assay relative to control
[8] = tested on: Epidermal growth factor receptor (Homo sapiens), P00533 [T790M]; assay: Inhibition of […] EGFR T790M mutant (unknown origin) at 2 nM pretreated with substrate for 10 mins followed by ATP addition measured after 60 mins by mobility shift assay relative to control

Row | inhibition [1] | inhibition [2] | inhibition [3] | inhibition [4] | inhibition [6] | inhibition [7] | inhibition [8] | Compound | IC50 (NCI-H1975) | IC50 (HCC827) | IC50 (A549) | IC50 (BEAS-2B) | IC50 [5] | IC50 (NCI-H460)
1 | 4.5% | 11% | 3.6% | 2.4% | 2.2% | 9.7% | 7.3% | C=CC(=O)Nc1cccc(Oc2nc(Nc3ccc(N4CCN(C)CC4)c(N)c3)nc3c2ccn3COC(=O)C(C)(C)C)c1 | 42 µM | 0.33 µM | 10.8 µM | 9.54 µM | 9.58 µM | 7.65 µM
2 | 86% | 44% | 9.2% | 92% | 4.8% | 41% | 98% | C=CC(=O)Nc1cccc(Oc2nc(Nc3ccc(N4CCN(C)CC4)c(Cl)c3)nc3[nH]ccc23)c1 | 1.67 µM | 0.12 µM | 1.68 µM | 3.8 µM | 8.73 µM | 4.86 µM

Further lines, the molecule ahead of its results:

Row | Compound | inhibition [1] | inhibition [2] | inhibition [3] | inhibition [4] | inhibition [6] | inhibition [7] | inhibition [8] | IC50 (NCI-H1975) | IC50 (HCC827) | IC50 (A549) | IC50 (BEAS-2B) | IC50 [5] | IC50 (NCI-H460)
3 | C=CC(=O)Nc1cccc(Oc2nc(Nc3ccc(N4CCN(C)CC4)c([N+](=O)[O-])c3)nc3c2ccn3COC(=O)C(C)(C)C)c1 | 4.7% | 0.41% | 8.4% | 3.5% | 6.3% | 13% | 7.9% | 4.12 µM | 0.44 µM | 3.1 µM | 5.73 µM | 3.61 µM | 4.68 µM
4 | C=CC(=O)Nc1cccc(Oc2nc(Nc3ccc(N4CCN(C)CC4)c(OC)c3)nc3[nH]ccc23)c1 | 32% | 25% | 7.8% | 42% | 13% | 31% | 97% | 22.4 µM | 0.26 µM | 20.6 µM | 9.89 µM | 12.5 µM | 33.6 µM
5 | C=CC(=O)Nc1cccc(Oc2nc(Nc3ccc(N4CCN(C)CC4)cc3)nc3[nH]ccc23)c1 | – | – | – | – | – | – | – | 22 µM | 0.24 µM | 9.92 µM | 23.8 µM | 28.1 µM | 36 µM
